Measurements: patent publication US4431652A, “4-Hydroxy-5-substituted-3(2H)-isothiazolone-1,1-dioxide derivatives useful in treating urinary tract calcium oxalate lithiasis” (Merck & Co., Inc., priority 1980, dated 1984)

Biological target: T1, pig liver glycolate oxidase (Sus scrofa, UniProt I3LVF1)
T1 construct: The enzyme was pig liver glycolate oxidase; from tissue; host or cells: pig liver
T1 sequence (I3LVF1 1-370): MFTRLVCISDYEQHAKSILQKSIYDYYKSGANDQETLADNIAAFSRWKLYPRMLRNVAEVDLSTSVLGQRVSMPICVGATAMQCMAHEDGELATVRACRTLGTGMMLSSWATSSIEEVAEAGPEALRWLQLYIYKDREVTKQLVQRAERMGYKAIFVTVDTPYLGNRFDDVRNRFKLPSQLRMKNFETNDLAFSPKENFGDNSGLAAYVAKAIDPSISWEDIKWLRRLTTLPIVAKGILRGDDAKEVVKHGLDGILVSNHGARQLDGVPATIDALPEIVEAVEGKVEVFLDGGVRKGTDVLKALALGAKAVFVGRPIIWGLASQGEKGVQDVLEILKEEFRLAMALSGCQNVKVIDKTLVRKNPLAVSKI
Test: Glycolate oxidase enzyme inhibition (rate of reduction of sodium 2,6-dichlorophenol-indophenol by sodium glycolate, 600 nm)
Assay type: biochemical
Settings: 25° C., 0.10 M phosphate buffer, pH 7.0, 3 mM EDTA, 2×10^-4 M sodium glycolate, 5×10^-5 M sodium 2,6-dichlorophenol-indophenol, initial rates 1 to 3 min
Method: The usefulness of the compounds of the present invention in treating urinary tract, especially renal, calcium oxalate lithiasis, was shown by the ability of these compounds to inhibit the glycolate oxidase enzyme. […] The activity of the enzyme, in turn, was measured by following the rate of reduction of sodium 2,6-dichlorophenol-indophenol by sodium glycolate in the presence of the enzyme. The enzyme was pig liver glycolate oxidase. The reaction was following spectrophotometrically at 600 nm. The assay was conducted at 25° C. in a 0.10 M phosphate buffer, pH 7.0, contining 3 mM EDTA. Initial substrate concentrations were 5×10^-5 M of sodium 2,6-dichlorophenol-indophenol and 2×10^-4 M of sodium glycolate. Reactions were initiated by the addition of enzyme. Initial rates during the period from 1 to 3 min. after the addition of enzyme were recorded on a Beckman Acta M-VI spectrophotometer. One control was run simultaneously with three test reactions, and all initial rates were adjusted to a common control rate. For further details of this procedure, see Randall et al., J. Med. Chem., 22, 6, 612 (1979).

IC50	Compound
0.6 µM	O=C1NS(=O)(=O)C(c2nc(-c3ccc(Cl)c(Cl)c3)cs2)=C1O [5-[4-(3,4-Dichlorophenyl)thiazol-2-yl]-4-hydroxy-3(2H)-isothiazolone-1,1-dioxide]
0.11 µM	O=C1NS(=O)(=O)C(c2csc(-c3ccc(Cl)c(Cl)c3)n2)=C1O [5-[2-(3,4-Dichlorophenyl)thiazol-4-yl]-4-hydroxy-3(2H)-isothiazolone-1,1-dioxide]
